# Laboratory results taken from patent US8680052B1, “Methods of treating, reducing the incidence of, and/or preventing ischemic events” (The Medicines Company, priority 2013, dated 2014).
# Where two headings read alike, the source gives them in different places.
# Assays:
# [1] = tested on: patients with acute coronary syndromes undergoing PCI; test: Example 2: bleeding (GUSTO, TIMI, ACUITY) and adverse events up to 48 hours; type: in vivo, human
# Source text: Multiple definitions of bleeding were used for full disclosure of bleeding risks associated with cangrelor: […] N Engl J Med 329:673-82 (1993); mild, moderate, or severe/life-threatening based on transfusion use and presence/absence of hemodynamic compromise); […] Investigators reported adverse and serious adverse events according to International Conference on Harmonization guidance (International Conference on Harmonization (ICH) Guidance Documents. U.S. Food and Drug Administration Web site. (Accessed on Oct. 8, 2009, at the FDA website beginning with “www.” and ending with “fda.gov/RegulatoryInformation/Guidances/ucm122049.htm”)).
# [2] = tested on: patients with atherosclerosis undergoing PCI
# Description: The protocol called for aspirin (75 to 325 mg) to be administered to all patients. […] The choice of a periprocedural anticoagulant (bivalirudin, unfractionated heparin, low-molecular-weight heparin, or fondaparinux) was also at the discretion of the investigator. Glycoprotein IIb/IIIa inhibitors were allowed only as rescue therapy during PCI to treat new or persistent thrombus formation, slow or no reflow, side-branch compromise, dissection, or distal embolization. The investigator at the site determined the protocol for management of the arterial sheath.
# The inclusion criteria for the trial were men or nonpregnant women, 18 years of age or older with coronary atherosclerosis who required PCI for stable angina, a non-ST-segment elevation acute coronary syndrome, or ST-segment elevation myocardial infarction (STEMI). Patients were required to provide written informed consent.
# Major exclusion criteria were receipt of a P2Y12 inhibitor or abciximab at any time in the 7 days before randomization and receipt of eptifibatide or tirofiban or fibrinolytic therapy in the 12 hours before randomization.
# The primary efficacy end point was the composite rate of death from any cause, myocardial infarction, IDR, or stent thrombosis in the 48 hours after randomization in the modified intention-to-treat population (which comprised patients who actually underwent PCI and received the study drug). […] The key secondary end point was the incidence of stent thrombosis at 48 hours. This end point included definite stent thrombosis, defined according to the criteria of the Academic Research Consortium, or intraprocedural stent thrombosis, which was assessed, with group assignments concealed, at an angiographic core laboratory (Cardiovascular Research Foundation). Intraprocedural stent thrombosis was defined as any new or worsened thrombus related to the stent procedure that was confirmed angiographically. Events of death, myocardial infarction, IDR, and stent thrombosis that occurred during the first 30 days after randomization were adjudicated by the clinical events committee at the Duke Clinical Research Institute. The study adhered to the universal definition of myocardial infarction for myocardial infarction unrelated to PCI but expanded on the definition of PCI-related myocardial infarction.
# The numbers and percentages of patients within each analysis population (modified intention-to-treat, intention-to-treat, and safety) were summarized according to treatment group. The primary efficacy analysis of the rate of the composite end point of death from any cause, myocardial infarction, IDR, or stent thrombosis (with all events adjudicated by the clinical events committee) in the 48 hours after randomization was conducted in the modified intention-to-treat population. The primary safety analysis was conducted in the safety population, which comprised all patients who underwent randomization and received at least one dose of the study drug; patients were classified according to the actual treatment received. All calculations and statistical analyses were performed with the use of SAS software, version 9.2.
# [3] = 48 hours, ITT, Cangrelor vs Clopidogrel
# [4] = 48 hours, ITT, rate in parentheses
# [5] = 48 hours, modified intention-to-treat, Cangrelor vs Clopidogrel
# [6] = 30 days, cangrelor vs clopidogrel
# [7] = 30 days, modified intention-to-treat population
# [8] = 30 days, modified intention-to-treat, Cangrelor vs Clopidogrel
compound,measurement,setting,value
"CSCCNc1nc(SCCC(F)(F)F)nc2c1ncn2[C@@H]1O[C@H](COP(=O)(O)OP(=O)(O)C(Cl)(Cl)P(=O)(O)O)[C@@H](O)[C@H]1O [Cangrelor, cangrelor]",OR (95% CI): Hematoma ≧5 cm at puncture site,"[1]; 48-hour, safety population, cangrelor vs clopidogrel","1.12 (0.82, 1.53)"
same,ACUITY criteria Major bleeding,"[1]; human, in vivo, 48 h",158 (3.6) no. (%)
same,ACUITY criteria Minor bleeding,"[1]; human, in vivo, 48 h",768 (17.6) no. (%)
same,Access site bleeding requiring radiologic or surgical intervention,"[1]; human, in vivo, 48 h",6 (0.1) no. (%)
same,Any blood transfusion,"[1]; human, in vivo, 48 h",46 (1.1) no. (%)
same,Any platelet transfusion,"[1]; human, in vivo, 48 h",6 (0.1) no. (%)
same,Drop in hemoglobin and/or hematocrit,"[1]; human, in vivo, 48 h",91 (2.1) no. (%)
same,Dyspnea,"[1]; human, in vivo, 48 h",1.0%
same,Ecchymosis,"[1]; human, in vivo, 48 h",284 (6.5) no. (%)
same,Epistaxis,"[1]; human, in vivo, 48 h",9 (0.2) no. (%)
same,GUSTO criteria Mild bleeding,"[1]; human, in vivo, 48 h",858 (19.6) no. (%)
same,GUSTO criteria Moderate bleeding,"[1]; human, in vivo, 48 h",41 (0.9) no. (%)
same,GUSTO criteria Severe/life-threatening bleeding,"[1]; human, in vivo, 48 h",10 (0.2) no. (%)
same,Hematoma <5 cm at puncture site,"[1]; human, in vivo, 48 h",251 (5.7) no. (%)
same,Hematoma ≧5 cm at puncture site,"[1]; human, in vivo, 48 h",85 (1.9) no. (%)
same,Hemodynamic compromise,"[1]; human, in vivo, 48 h",9 (0.2) no. (%)
same,Intracranial hemorrhage,"[1]; human, in vivo, 48 h",1 (0.0) no. (%)
same,Intraocular,"[1]; human, in vivo, 48 h",2 (0.0) no. (%)
same,OR (95% CI): ACUITY criteria Major bleeding,"[1]; human, in vivo, 48 h","1.26 (0.99, 1.60)"
same,OR (95% CI): ACUITY criteria Minor bleeding,"[1]; human, in vivo, 48 h","1.19 (1.06, 1.33)"
same,OR (95% CI): Access site bleeding requiring radiologic or surgical intervention,"[1]; human, in vivo, 48 h","0.60 (0.22, 1.65)"
same,OR (95% CI): Any blood transfusion,"[1]; human, in vivo, 48 h","1.09 (0.72, 1.67)"
same,OR (95% CI): Any platelet transfusion,"[1]; human, in vivo, 48 h","1.20 (0.37, 3.93)"
same,OR (95% CI): Drop in hemoglobin and/or hematocrit,"[1]; human, in vivo, 48 h","1.45 (1.05, 2.01)"
same,OR (95% CI): Ecchymosis,"[1]; human, in vivo, 48 h","1.23 (1.03, 1.47)"
same,OR (95% CI): Epistaxis,"[1]; human, in vivo, 48 h","0.41 (0.19, 0.89)"
same,OR (95% CI): GUSTO criteria Mild bleeding,"[1]; human, in vivo, 48 h","1.20 (1.07, 1.34)"
same,OR (95% CI): GUSTO criteria Moderate bleeding,"[1]; human, in vivo, 48 h","1.21 (0.76, 1.90)"
same,OR (95% CI): GUSTO criteria Severe/life-threatening bleeding,"[1]; human, in vivo, 48 h","0.91 (0.39, 2.14)"
same,OR (95% CI): Hematoma <5 cm at puncture site,"[1]; human, in vivo, 48 h","1.14 (0.94, 1.37)"
same,OR (95% CI): Hemodynamic compromise,"[1]; human, in vivo, 48 h","0.82 (0.34, 1.97)"
same,OR (95% CI): Oozing at puncture site,"[1]; human, in vivo, 48 h","1.28 (1.10, 1.49)"
same,OR (95% CI): Reoperation for bleeding,"[1]; human, in vivo, 48 h","1.00 (0.06, 15.96)"
same,OR (95% CI): Retroperitoneal,"[1]; human, in vivo, 48 h","1.50 (0.67, 3.34)"
same,OR (95% CI): TIMI criteria Major bleeding,"[1]; human, in vivo, 48 h","1.36 (0.68, 2.71)"
same,OR (95% CI): TIMI criteria Minor bleeding,"[1]; human, in vivo, 48 h","1.39 (0.84, 2.30)"
same,OR (95% CI): Thrombocytopenia,"[1]; human, in vivo, 48 h","0.86 (0.29, 2.55)"
same,Oozing at puncture site,"[1]; human, in vivo, 48 h",400 (9.1) no. (%)
same,Reoperation for bleeding,"[1]; human, in vivo, 48 h",1 (0.0) no. (%)
same,Reported adverse events,"[1]; human, in vivo, 48 h",26.4%
same,Retroperitoneal,"[1]; human, in vivo, 48 h",15 (0.3) no. (%)
same,Serious adverse events,"[1]; human, in vivo, 48 h",2.7%
same,TIMI criteria Major bleeding,"[1]; human, in vivo, 48 h",19 (0.4) no. (%)
same,TIMI criteria Minor bleeding,"[1]; human, in vivo, 48 h",36 (0.8) no. (%)
same,Thrombocytopenia,"[1]; human, in vivo, 48 h",6 (0.1) no. (%)
same,discontinuation of study drug due to an adverse event,"[1]; human, in vivo, 48 h",0.5%
same,"odds ratio, primary end point",[2]; 300-mg loading dose of clopidogrel,0.84
same,"odds ratio, primary end point",[2]; 600-mg loading dose of clopidogrel,0.77
same,number needed to treat to prevent one primary end-point event,[2]; 48 hours,84
same,rate of stent thrombosis (key secondary efficacy end point),[2]; 48 hours,0.8%
same,Death OR,[2]; [3],0.95
same,Death/MI OR,[2]; [3],0.80
same,Death/MI/IDR OR,[2]; [3],0.80
same,Death/MI/IDR/ST OR,[2]; [3],0.79
same,Death/MI/IDR/ST/GUSTO Severe Bleeding (NACE) OR,[2]; [3],0.80
same,Death/MI/ST OR,[2]; [3],0.79
same,Death/Q-wave MI/IDR OR,[2]; [3],0.77
same,Death/ST OR,[2]; [3],0.67
same,IDR OR,[2]; [3],0.76
same,MI OR,[2]; [3],0.80
same,Q-wave MI OR,[2]; [3],0.61
same,Stent thrombosis OR,[2]; [3],0.62
same,Death,"[2]; 48 hours, ITT, n/N",20/5573
same,Death/MI,"[2]; 48 hours, ITT, n/N",222/5573
same,Death/MI/IDR,"[2]; 48 hours, ITT, n/N",233/5573
same,Death/MI/IDR/ST,"[2]; 48 hours, ITT, n/N",260/5573
same,"Death/MI/IDR/ST/GUSTO Severe Bleeding (Net Adverse Clinical Events, NACE)","[2]; 48 hours, ITT, n/N",267/5573
same,Death/MI/ST,"[2]; 48 hours, ITT, n/N",251/5573
same,Death/Q-wave MI/IDR,"[2]; 48 hours, ITT, n/N",52/5573
same,Death/ST,"[2]; 48 hours, ITT, n/N",61/5573
same,IDR,"[2]; 48 hours, ITT, n/N",29/5573
same,MI,"[2]; 48 hours, ITT, n/N",207/5573
same,Q-wave MI,"[2]; 48 hours, ITT, n/N",11/5573
same,Stent thrombosis,"[2]; 48 hours, ITT, n/N",46/5573
same,Death,[2]; [4],(0.4)
same,Death/MI,[2]; [4],(4.0)
same,Death/MI/IDR,[2]; [4],(4.2)
same,Death/MI/IDR/ST,[2]; [4],(4.7)
same,"Death/MI/IDR/ST/GUSTO Severe Bleeding (Net Adverse Clinical Events, NACE)",[2]; [4],(4.8)
same,Death/MI/ST,[2]; [4],(4.5)
same,Death/Q-wave MI/IDR,[2]; [4],(0.9)
same,Death/ST,[2]; [4],(1.1)
same,IDR,[2]; [4],(0.5)
same,MI,[2]; [4],(3.7)
same,Q-wave MI,[2]; [4],(0.2)
same,Stent thrombosis,[2]; [4],(0.8)
same,"odds ratio, stent thrombosis","[2]; 48 hours, cangrelor vs clopidogrel",0.62
same,"odds ratio, primary composite efficacy end point","[2]; 48 hours, crude analysis, cangrelor vs clopidogrel",0.79
same,"odds ratio, primary composite efficacy end point","[2]; 48 hours, logistic regression adjusted for baseline status and clopidogrel loading dose, cangrelor vs clopidogrel",0.78
same,"rate of primary composite efficacy end point (death from any cause, myocardial infarction, IDR, or stent thrombosis)","[2]; 48 hours, modified intention-to-treat",4.7%
same,"Death from any cause, Odds Ratio (95% CI)",[2]; [5],1.00 (0.52-1.92)
same,"Death from cardiovascular causes, Odds Ratio (95% CI)",[2]; [5],1.00 (0.52-1.92)
same,"Death or stent thrombosis, Odds Ratio (95% CI)",[2]; [5],0.67 (0.48-0.94)
same,"Death, Q-wave myocardial infarction, or ischemia-driven revascularization, Odds Ratio (95% CI)",[2]; [5],0.76 (0.53-1.11)
same,Death/MI OR (95% CI),[2]; [5],"0.80 (0.67, 0.96)"
same,Death/MI/Definite ST OR (95% CI),[2]; [5],"0.80 (0.66, 0.95)"
same,Death/MI/IDR OR (95% CI),[2]; [5],"0.80 (0.67, 0.95)"
same,Death/MI/IDR/Definite ST OR (95% CI),[2]; [5],"0.80 (0.67, 0.95)"
same,Death/MI/ST OR (95% CI),[2]; [5],"0.79 (0.66, 0.94)"
same,Definite ST OR (95% CI),[2]; [5],"0.54 (0.27, 1.10)"
same,"Ischemia-driven revascularization, Odds Ratio (95% CI)",[2]; [5],0.74 (0.45-1.20)
same,"Key secondary end point: stent thrombosis, Odds Ratio (95% CI)",[2]; [5],0.62 (0.43-0.90)
same,"Myocardial infarction, Odds Ratio (95% CI)",[2]; [5],0.80 (0.67-0.97)
same,"Net adverse clinical events, Odds Ratio (95% CI)",[2]; [5],0.80 (0.68-0.94)
same,"Q-wave myocardial infarction, Odds Ratio (95% CI)",[2]; [5],0.61 (0.29-1.29)
same,"Primary end point: death from any cause, myocardial infarction, ischemia-driven revascularization, or stent thrombosis, Odds Ratio (95% CI)","[2]; 48 hours, modified intention-to-treat, Cangrelor vs Clopidogrel, logistic regression adjusted for baseline status and clopidogrel loading dose",0.78 (0.66-0.93)
same,net rate of adverse clinical events (primary efficacy plus primary safety end point),"[2]; 48 hours, post hoc",4.8%
same,"odds ratio, net adverse clinical events","[2]; 48 hours, post hoc, cangrelor vs clopidogrel",0.80
same,Stent thrombosis,[2]; 30 days,1.3%
same,rate of the composite efficacy end point,[2]; 30 days,6.0%
same,"odds ratio, composite efficacy end point",[2]; [6],0.85
same,"odds ratio, stent thrombosis",[2]; [6],0.68
same,Death from any cause,[2]; [7],(1.1) percent
same,"Death from any cause, myocardial infarction, ischemia-driven revascularization, or stent thrombosis",[2]; [7],(6.0) percent
same,Death from cardiovascular causes,[2]; [7],(0.9) percent
same,"Death from any cause, Odds Ratio",[2]; [8],1.09
same,"Death from cardiovascular causes, Odds Ratio",[2]; [8],1.04
same,"Ischemia-driven revascularization, Odds Ratio",[2]; [8],0.85
same,"Myocardial infarction, Odds Ratio",[2]; [8],0.82
same,"Q-wave myocardial infarction, Odds Ratio",[2]; [8],0.63
same,"Stent thrombosis, Odds Ratio",[2]; [8],0.68
same,"Death from any cause, myocardial infarction, ischemia-driven revascularization, or stent thrombosis, Odds Ratio","[2]; 30 days, modified intention-to-treat, Cangrelor vs Clopidogrel, adjusted logistic regression",0.85
same,"odds ratio, intraprocedural stent thrombosis",[2]; cangrelor vs clopidogrel,0.65
same,"odds ratio, procedural complications",[2]; cangrelor vs clopidogrel,0.74
same,"odds ratio, rescue therapy with a glycoprotein IIb/IIIa inhibitor",[2]; cangrelor vs clopidogrel,0.65
same,odds of an ischemic event lower than with clopidogrel,[2]; in vivo,22%
same,odds of stent thrombosis lower than with clopidogrel,[2]; in vivo,38%
same,rate of intraprocedural stent thrombosis,[2]; in vivo,0.6%
same,rate of procedural complications,[2]; in vivo,3.4%
same,use of rescue therapy with a glycoprotein IIb/IIIa inhibitor,[2]; in vivo,2.3%
same,"odds ratio, primary end point",[2]; infusion for 129 minutes or less,0.85
same,"odds ratio, primary end point",[2]; infusion for more than 129 minutes,0.72
same,"odds ratio, primary end point",[2]; patients who received the loading dose during or after PCI,0.79
same,"odds ratio, primary end point",[2]; patients who received the loading dose immediately before PCI,0.80
